PubChem BioAssay AID200 (DTP/NCI, 2004)
“And” between values parts separate entries of the source, which are not always exact repeats. Equal entries are not always repeated. Toxic doses and inconclusive results are not listed. The calls were made as follows: active = survival T/C of 150% or more; inactive = T/C below 125% in these data. Where a SMILES comes first, the peptide text is derived from it.

Test system: B6C3F1 mice, B16 melanoma ip, median survival T/C
Test: NCI In Vivo Anticancer Drug Screen. Data for tumor model B16 Melanoma (intraperitoneal) in B6C3F1 mice
Details: endpoint: median survival time, higher = longer survival
Outline: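 Mice bearing transplanted tumor were dosed with compound or vehicle, and survival was recorded. Activity is expressed as the treated-group measurement (T) divided by the vehicle control measurement (C).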

[1] = dose: 400.0 mg/kg/injection, schedule: Q01DX009 (ip), vehicle: saline with Tween-80
[2] = dose: 6.25 mg/kg/injection, schedule: Q01DX009 (ip), vehicle: saline with Tween-80
[3] = dose: 12.5 mg/kg/injection, schedule: Q01DX009 (ip), vehicle: saline with Tween-80
[4] = dose: 25.0 mg/kg/injection, schedule: Q01DX009 (ip), vehicle: saline with Tween-80
[5] = dose: 50.0 mg/kg/injection, schedule: Q01DX009 (ip), vehicle: saline with Tween-80
[6] = dose: 100.0 mg/kg/injection, schedule: Q01DX009 (ip), vehicle: saline with Tween-80

Measured: T/C

COC1=C(C)C(=O)C2=C(C1=O)C(CO)N1C(C#N)C3CC4C(C1C2N1CCOC41)N3C (stereo not drawn)
inactive: dose: 0.06 mg/kg/injection, schedule: Q01DX009 (ip), vehicle: acid diluted with saline 105 % of control | dose: 0.12 mg/kg/injection, schedule: Q01DX009 (ip), vehicle: acid diluted with saline 98 % of control | dose: 0.12 mg/kg/injection, schedule: Q01DX009 (ip), vehicle: saline + alcohol 102 % of control | dose: 0.25 mg/kg/injection, schedule: Q01DX009 (ip), vehicle: acid diluted with saline 111 % of control | dose: 0.25 mg/kg/injection, schedule: Q01DX009 (ip), vehicle: saline + alcohol 109 % of control and 104 % of control | dose: 0.5 mg/kg/injection, schedule: Q01DX009 (ip), vehicle: acid diluted with saline 116 % of control and 103 % of control | dose: 0.5 mg/kg/injection, schedule: Q01DX009 (ip), vehicle: saline + alcohol 112 % of control and 113 % of control and 118 % of control | dose: 1.0 mg/kg/injection, schedule: Q01DX009 (ip), vehicle: acid diluted with saline 108 % of control and 113 % of control | dose: 1.0 mg/kg/injection, schedule: Q01DX009 (ip), vehicle: saline + alcohol 109 % of control and 121 % of control

CC(=O)Oc1[nH]c(=O)c2cccc3c2c1CCC3
inactive: [1] 120 % of control

COc1cc(Cl)ccc1C
inactive: dose: 9.37 mg/kg/injection, schedule: Q01DX009 (ip), vehicle: Klucel (hydroxypropylcellulose) (HPC) 100 % of control | dose: 18.75 mg/kg/injection, schedule: Q01DX001 (ip), vehicle: Klucel (hydroxypropylcellulose) (HPC) 109 % of control | dose: 18.75 mg/kg/injection, schedule: Q01DX009 (ip), vehicle: Klucel (hydroxypropylcellulose) (HPC) 100 % of control | dose: 37.5 mg/kg/injection, schedule: Q01DX001 (ip), vehicle: Klucel (hydroxypropylcellulose) (HPC) 107 % of control | dose: 37.5 mg/kg/injection, schedule: Q01DX009 (ip), vehicle: Klucel (hydroxypropylcellulose) (HPC) 98 % of control | dose: 75.0 mg/kg/injection, schedule: Q01DX001 (ip), vehicle: Klucel (hydroxypropylcellulose) (HPC) 115 % of control | dose: 75.0 mg/kg/injection, schedule: Q01DX009 (ip), vehicle: Klucel (hydroxypropylcellulose) (HPC) 101 % of control | dose: 150.0 mg/kg/injection, schedule: Q01DX001 (ip), vehicle: Klucel (hydroxypropylcellulose) (HPC) 110 % of control | dose: 150.0 mg/kg/injection, schedule: Q01DX009 (ip), vehicle: Klucel (hydroxypropylcellulose) (HPC) 100 % of control | dose: 300.0 mg/kg/injection, schedule: Q01DX001 (ip), vehicle: Klucel (hydroxypropylcellulose) (HPC) 111 % of control | dose: 300.0 mg/kg/injection, schedule: Q01DX009 (ip), vehicle: Klucel (hydroxypropylcellulose) (HPC) 95 % of control

CC[C@H](CC[C@@H](C)[C@H]1CC[C@H]2[C@@H]3CC=C4C[C@@H](OC(C)=O)CC[C@]4(C)[C@H]3CC[C@]12C)C(C)C
inactive: dose: 12.5 mg/kg/injection, schedule: Q01DX009 (ip), vehicle: Klucel (hydroxypropylcellulose) (HPC) 95 % of control

CC(C)CCC(=O)c1ccoc1
inactive: dose: 0.12 mg/kg/injection, schedule: Q03HX027 (ip), vehicle: saline with Tween-80 100 % of control | dose: 0.25 mg/kg/injection, schedule: Q01DX009 (ip), vehicle: saline with Tween-80 100 % of control | dose: 0.25 mg/kg/injection, schedule: Q03HX027 (ip), vehicle: saline with Tween-80 98 % of control | dose: 0.5 mg/kg/injection, schedule: Q01DX009 (ip), vehicle: saline with Tween-80 100 % of control | dose: 0.5 mg/kg/injection, schedule: Q03HX027 (ip), vehicle: saline with Tween-80 107 % of control | dose: 1.0 mg/kg/injection, schedule: Q01DX009 (ip), vehicle: saline with Tween-80 102 % of control | dose: 1.0 mg/kg/injection, schedule: Q03HX027 (ip), vehicle: saline with Tween-80 88 % of control | dose: 2.0 mg/kg/injection, schedule: Q01DX009 (ip), vehicle: saline with Tween-80 102 % of control | dose: 2.0 mg/kg/injection, schedule: Q03HX027 (ip), vehicle: saline with Tween-80 107 % of control

COc1cccc2c1C(=O)c1c(O)c3c(c(O)c1C2=O)C[C@@](O)(C(C)O)C[C@@H]3OC1CC(N2CCOCC2)C(O)C(C)O1 (stereo partly drawn)
inactive: dose: 0.06 mg/kg/injection, schedule: Q01DX001 (ip), vehicle: water 111 % of control | dose: 0.13 mg/kg/injection, schedule: Q01DX001 (ip), vehicle: water 115 % of control | dose: 62.5 micrograms/kg/injection, schedule: Q01DX001 (ip), vehicle: water 107 % of control | dose: 125.0 micrograms/kg/injection, schedule: Q01DX001 (ip), vehicle: water 106 % of control | dose: 250.0 micrograms/kg/injection, schedule: Q01DX001 (ip), vehicle: water 120 % of control

O=C1[C@H]2CCC[C@H]2[C@H]2CCC[C@@H]12
inactive: [2] 102 % of control | [3] 99 % of control | [4] 100 % of control | [5] 100 % of control | [6] 100 % of control

O=C(O)CCCCCCCC(=O)O
inactive: dose: 12.5 mg/kg/injection, schedule: Q01DX009 (ip), vehicle: distilled water + Tween-80 91 % of control | dose: 25.0 mg/kg/injection, schedule: Q01DX009 (ip), vehicle: distilled water + Tween-80 101 % of control | dose: 50.0 mg/kg/injection, schedule: Q01DX009 (ip), vehicle: distilled water + Tween-80 101 % of control | dose: 100.0 mg/kg/injection, schedule: Q01DX009 (ip), vehicle: distilled water + Tween-80 91 % of control

CCC1=C[C@H]2CN(CCc3c([nH]c4ccccc34)[C@@](C(=O)OC)(c3cc4c(cc3OC)N(C)[C@H]3[C@@](O)(C(=O)NC)[C@H](OC(C)=O)[C@]5(CC)C=CCN6CC[C@]43[C@@H]65)C2)C1
inactive: dose: 0.03 mg/kg/injection, schedule: Q01DX009 (ip), vehicle: saline 117 % of control | dose: 0.06 mg/kg/injection, schedule: Q01DX009 (ip), vehicle: saline 118 % of control
active: dose: 0.12 mg/kg/injection, schedule: Q01DX009 (ip), vehicle: saline 170 % of control | dose: 0.25 mg/kg/injection, schedule: Q01DX009 (ip), vehicle: saline 182 % of control | dose: 0.5 mg/kg/injection, schedule: Q01DX009 (ip), vehicle: saline 238 % of control

CC(C)c1cc(C(=O)O)c(O)c(C(C)C)c1.CC(C)c1cc(C(=O)O)c(O)c(C(C)C)c1.[Cu]
inactive: dose: 1.5 mg/kg/injection, schedule: Q01DX009 (ip), vehicle: saline with Tween-80 92 % of control | dose: 3.0 mg/kg/injection, schedule: Q01DX009 (ip), vehicle: saline with Tween-80 96 % of control | dose: 6.0 mg/kg/injection, schedule: Q01DX009 (ip), vehicle: saline with Tween-80 97 % of control | dose: 12.0 mg/kg/injection, schedule: Q01DX009 (ip), vehicle: saline with Tween-80 106 % of control | [3] 102 % of control | dose: 24.0 mg/kg/injection, schedule: Q01DX009 (ip), vehicle: saline with Tween-80 89 % of control

COC(=O)C(F)C(Br)C(=O)OC (stereo not drawn)
inactive: dose: 3.13 mg/kg/injection, schedule: Q01DX009 (ip), vehicle: saline with Tween-80 98 % of control | [2] 91 % of control | [3] 93 % of control | [4] 93 % of control | [5] 90 % of control

O=C(O)CNC(=O)CNC(=O)C(Cc1cnc[nH]1)NC(=O)OCc1ccccc1 (stereo not drawn) (HELM PEPTIDE1{[O=C(OCc1ccccc1)[*:2]].[O=C(C(Cc1c[nH]cn1)N[*:1])[*:2]].G.G}$$$$V2.0)
inactive: [6] 89 % of control | dose: 200.0 mg/kg/injection, schedule: Q01DX009 (ip), vehicle: saline with Tween-80 91 % of control | [1] 97 % of control

O=C1C2CC(Cl)C(SSC3CC4C(=O)N(SC(Cl)(Cl)C(Cl)Cl)C(=O)C4CC3Cl)CC2C(=O)N1SC(Cl)(Cl)C(Cl)Cl (stereo not drawn)
inactive: [4] 98 % of control | [5] 104 % of control | [6] 98 % of control

CCC(/C=C/C1OC(=O)C=CC1C)=C\C(C)C/C=C/C(C)=C/C(C)C(=O)C(C)C(O)C(C)C/C(C)=C/C(=O)O (stereo not drawn)
inactive: dose: 6.25 micrograms/kg/injection, schedule: Q01DX009 (sc), vehicle: other 105 % of control | dose: 12.5 micrograms/kg/injection, schedule: Q01DX009 (sc), vehicle: other 102 % of control | dose: 25.0 micrograms/kg/injection, schedule: Q01DX009 (sc), vehicle: other 115 % of control
active: dose: 12.5 micrograms/kg/injection, schedule: Q01DX009 (ip), vehicle: other 159 % of control | dose: 12.5 micrograms/kg/injection, schedule: Q01DX009 (ip), vehicle: saline + alcohol 156 % of control and 198 % of control | dose: 25.0 micrograms/kg/injection, schedule: Q01DX009 (ip), vehicle: saline + alcohol 165 % of control

O=S1(=O)C=C(c2ccccc2)C(c2ccccc2)=C1
inactive: dose: 3.12 mg/kg/injection, schedule: Q01DX009 (ip), vehicle: saline with Tween-80 92 % of control and 98 % of control | [2] 95 % of control | [3] 113 % of control and 94 % of control | [4] 106 % of control | [5] 119 % of control
